Broadly, the Ki is the equilibrium dissociation constant of an inhibitor or competing ligand from its target.

The target of one experiment is ROCK2 (Homo sapiens (Human), UniProt O75116). The experiment can be described thus: ROCK2 kinase assay (IMAP fluorescence polarization). In kind it is biochemical. To be noted: 1 μM ATP; read-out: ROCK2 Average Ki. For orientation: Fluorescence polarisation rises when a labelled molecule tumbles more slowly, as on binding a larger partner.
In another experiment the target is ROCK1 (Homo sapiens (Human), UniProt Q13464). As to conditions: read-out: ROCK1 Average Ki; 1 μM ATP.
A further experiment deals with MRCKβ (Homo sapiens (Human), UniProt Q9Y5S2). The experiment can be described thus: MRCKβ kinase assay (IMAP fluorescence polarization). In kind it is biochemical. To be noted: 1 μM ATP; read-out: MRCK-B Average Ki. From the text:
MRCKα, MRCKβ, ROCK1 and ROCK2 Kinase Assays

SMILES strings stand for the structures.

ROCK2, sequence (O75116 whole entry): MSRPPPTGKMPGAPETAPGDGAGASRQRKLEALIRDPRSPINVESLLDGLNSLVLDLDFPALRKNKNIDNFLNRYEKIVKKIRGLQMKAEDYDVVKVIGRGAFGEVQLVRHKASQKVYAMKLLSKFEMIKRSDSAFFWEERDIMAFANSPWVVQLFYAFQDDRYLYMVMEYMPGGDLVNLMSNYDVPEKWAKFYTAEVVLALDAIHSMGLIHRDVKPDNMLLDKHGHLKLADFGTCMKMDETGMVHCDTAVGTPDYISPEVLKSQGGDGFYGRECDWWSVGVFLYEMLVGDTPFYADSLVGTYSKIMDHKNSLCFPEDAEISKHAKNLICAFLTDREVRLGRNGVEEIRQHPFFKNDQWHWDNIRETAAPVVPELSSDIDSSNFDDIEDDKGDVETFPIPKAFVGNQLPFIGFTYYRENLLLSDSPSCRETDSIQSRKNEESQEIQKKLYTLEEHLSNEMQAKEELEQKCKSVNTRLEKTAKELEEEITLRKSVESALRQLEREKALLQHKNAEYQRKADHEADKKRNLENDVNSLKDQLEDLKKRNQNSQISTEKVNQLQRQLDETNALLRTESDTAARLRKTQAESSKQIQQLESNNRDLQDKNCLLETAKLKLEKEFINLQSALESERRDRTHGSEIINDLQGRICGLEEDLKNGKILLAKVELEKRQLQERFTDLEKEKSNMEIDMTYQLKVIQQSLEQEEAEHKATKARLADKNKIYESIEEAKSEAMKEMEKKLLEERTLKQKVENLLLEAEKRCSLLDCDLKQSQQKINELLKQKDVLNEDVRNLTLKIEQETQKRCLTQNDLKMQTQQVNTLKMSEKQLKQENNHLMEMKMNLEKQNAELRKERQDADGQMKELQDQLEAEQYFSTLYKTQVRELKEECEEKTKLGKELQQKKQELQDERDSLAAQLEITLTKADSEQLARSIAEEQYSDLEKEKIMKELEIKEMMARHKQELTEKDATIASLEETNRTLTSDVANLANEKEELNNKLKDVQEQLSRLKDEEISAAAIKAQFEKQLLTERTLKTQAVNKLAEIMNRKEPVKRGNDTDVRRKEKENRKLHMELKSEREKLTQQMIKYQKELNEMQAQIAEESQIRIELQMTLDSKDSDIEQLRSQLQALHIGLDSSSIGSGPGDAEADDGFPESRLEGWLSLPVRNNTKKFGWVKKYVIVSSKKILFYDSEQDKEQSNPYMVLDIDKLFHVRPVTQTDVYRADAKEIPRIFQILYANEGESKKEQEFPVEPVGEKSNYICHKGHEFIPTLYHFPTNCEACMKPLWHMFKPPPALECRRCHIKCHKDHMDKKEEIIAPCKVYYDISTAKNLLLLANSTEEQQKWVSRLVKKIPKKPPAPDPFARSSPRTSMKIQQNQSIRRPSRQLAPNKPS
ROCK1, sequence (Q13464 2-1354 limits assumed): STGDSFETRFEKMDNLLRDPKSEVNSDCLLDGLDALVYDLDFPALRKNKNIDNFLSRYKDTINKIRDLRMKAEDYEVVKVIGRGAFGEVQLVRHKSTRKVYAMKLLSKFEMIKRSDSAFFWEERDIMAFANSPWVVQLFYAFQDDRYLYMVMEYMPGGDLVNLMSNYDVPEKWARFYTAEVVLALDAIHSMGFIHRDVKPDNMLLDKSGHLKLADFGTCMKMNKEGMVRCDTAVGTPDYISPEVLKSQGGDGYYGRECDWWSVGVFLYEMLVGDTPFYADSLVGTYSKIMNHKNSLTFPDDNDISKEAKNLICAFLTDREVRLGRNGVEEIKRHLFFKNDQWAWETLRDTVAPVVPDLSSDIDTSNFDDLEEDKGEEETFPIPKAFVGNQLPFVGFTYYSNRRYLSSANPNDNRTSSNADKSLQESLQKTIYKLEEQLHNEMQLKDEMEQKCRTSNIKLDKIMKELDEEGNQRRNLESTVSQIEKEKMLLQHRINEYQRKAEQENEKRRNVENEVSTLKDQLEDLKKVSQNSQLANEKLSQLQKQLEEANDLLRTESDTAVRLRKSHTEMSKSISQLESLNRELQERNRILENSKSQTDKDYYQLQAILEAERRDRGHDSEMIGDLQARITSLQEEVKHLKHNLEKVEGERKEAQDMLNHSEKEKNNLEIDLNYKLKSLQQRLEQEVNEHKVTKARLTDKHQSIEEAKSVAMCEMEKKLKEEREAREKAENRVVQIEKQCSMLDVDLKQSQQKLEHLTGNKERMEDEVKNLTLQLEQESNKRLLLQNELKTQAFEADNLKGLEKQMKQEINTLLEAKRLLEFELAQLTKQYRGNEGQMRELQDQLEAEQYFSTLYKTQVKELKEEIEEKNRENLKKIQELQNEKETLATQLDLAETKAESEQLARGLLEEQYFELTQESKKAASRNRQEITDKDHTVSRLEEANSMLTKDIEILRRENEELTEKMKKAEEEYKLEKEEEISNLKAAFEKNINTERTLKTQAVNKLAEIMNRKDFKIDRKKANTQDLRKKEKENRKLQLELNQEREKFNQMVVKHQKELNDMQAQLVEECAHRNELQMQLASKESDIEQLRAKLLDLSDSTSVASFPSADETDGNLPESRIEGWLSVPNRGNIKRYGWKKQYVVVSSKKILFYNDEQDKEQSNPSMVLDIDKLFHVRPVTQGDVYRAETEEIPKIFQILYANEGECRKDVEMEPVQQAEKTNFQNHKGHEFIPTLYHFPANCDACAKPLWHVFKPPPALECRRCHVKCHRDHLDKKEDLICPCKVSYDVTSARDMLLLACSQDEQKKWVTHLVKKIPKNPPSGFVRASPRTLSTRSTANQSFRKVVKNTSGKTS

Consider `CCn1cc(-c2c[nH]c3nccc(N4CCCCC4)c23)cn1` [Example E21, 3-(1-ethylpyrazol-4-yl)-4-(1-piperidyl)-1H-pyrrolo[2,3-b]pyridine], for which the Ki came out at 0.0679 µM on ROCK2, 0.0749 µM on ROCK1 and 0.188 µM on MRCKβ.

Turning to `Cn1ccc(-c2c[nH]c3nccc(N4CCCCC4)c23)n1` [Example E22, 3-(1-methylpyrazol-3-yl)-4-(1-piperidyl)-1H-pyrrolo[2,3-b]pyridine], the inhibition constant (Ki) on ROCK2 was 3.22 µM; at ROCK1 it was 10 µM; on MRCKβ, 0.656 µM.

With `c1ccc(-c2c[nH]c3nccc(N4CCCCC4)c23)nc1` [Example E23, 4-(1-piperidyl)-3-(2-pyridyl)-1H-pyrrolo[2,3-b]pyridine], the Ki on ROCK2 was 0.699 µM; at ROCK1, 1.69 µM; on MRCKβ it was 0.134 µM.

For the compound `Cn1cc(-c2c[nH]c3nccc(N4CCCCC4)c23)cn1` [Example E24, 3-(1-methylpyrazol-4-yl)-4-(1-piperidyl)-1H-pyrrolo[2,3-b]pyridine], the Ki was determined as 0.0208 µM at ROCK2, 0.0435 µM at ROCK1 and 0.0376 µM on MRCKβ.

For the compound `c1ccc(-c2c[nH]c3nccc(N4CCC4)c23)nc1` [Example E25, 4-(azetidin-1-yl)-3-(2-pyridyl)-1H-pyrrolo[2,3-b]pyridine], the Ki on ROCK2 amounted to 1.5 µM; on ROCK1 it was 10 µM; at MRCKβ, 0.178 µM.

For the compound `c1cncc(-c2c[nH]c3nccc(N4CCC4)c23)c1` [Example E26, 4-(azetidin-1-yl)-3-(3-pyridyl)-1H-pyrrolo[2,3-b]pyridine], the Ki at ROCK2 came out at 0.263 µM; at ROCK1, 0.545 µM; at MRCKβ, 0.0576 µM.

As for `c1cc(N2CCC2)c2c(-c3cn[nH]c3)c[nH]c2n1` [Example E27, 4-(azetidin-1-yl)-3-(1H-pyrazol-4-yl)-1H-pyrrolo[2,3-b]pyridine], the results for the inhibitory constant (Ki) on ROCK2, at ROCK1 and on MRCKβ were 0.381 µM, 0.713 µM and 0.13 µM, respectively.

In the case of `c1cc(N2CCC2)c2c(-c3cc[nH]n3)c[nH]c2n1` [Example E28, 4-(azetidin-1-yl)-3-(1H-pyrazol-3-yl)-1H-pyrrolo[2,3-b]pyridine], the Ki at ROCK2 worked out at 0.0098 µM; at ROCK1, 0.0144 µM; at MRCKβ, 0.0294 µM.

Regarding `CN1CCN(c2ccnc3[nH]cc(C#N)c23)CC1` [Example E32, 4-(4-methylpiperazin-1-yl)-1H-pyrrolo[2,3-b]pyridine-3-carbonitrile], the inhibition constant (Ki) at ROCK2 was 0.164 µM; on ROCK1, 0.237 µM; on MRCKβ it was 0.147 µM.

Consider `N#Cc1c[nH]c2nccc(N3CCNCC3)c12` [Example E34, 4-piperazin-1-yl-1H-pyrrolo[2,3-b]pyridine-3-carbonitrile], for which the inhibition constant Ki at ROCK2 stood at 0.0238 µM; at ROCK1 it was 0.0436 µM; at MRCKβ, 0.0528 µM.

For the compound `CN[C@H]1CCCN(c2ccnc3[nH]cc(-c4ncccc4F)c23)C1` [Example E48, (3S)-1-[3-(3-fluoro-2-pyridyl)-1H-pyrrolo[2,3-b]pyridin-4-yl]-N-methyl-piperidin-3-amine], the Ki on ROCK2 stood at 0.756 µM; at ROCK1, 3.53 µM; at MRCKβ, 0.00173 µM.

As for `CN[C@H]1CCCN(c2ccnc3[nH]cc(-c4ccccn4)c23)C1` [Example E49, (3S)-N-methyl-1-[3-(2-pyridyl)-1H-pyrrolo[2,3-b]pyridin-4-yl]piperidin-3-amine], the Ki on ROCK2 was found to be 0.272 µM; on ROCK1, 50.8 µM; on MRCKβ, 0.000506 µM.

As to `CN[C@H]1CCCN(c2ccnc3[nH]cc(-c4cncc(F)c4)c23)C1` [Example E50, (3S)-1-[3-(5-fluoro-3-pyridyl)-1H-pyrrolo[2,3-b]pyridin-4-yl]-N-methyl-piperidin-3-amine], the Ki is 0.578 µM at ROCK2, 2.05 µM at ROCK1 and 0.000729 µM on MRCKβ.

With `CN[C@H]1CCCN(c2ccnc3[nH]cc(-c4ccc(F)cn4)c23)C1` [Example E51, (3S)-1-[3-(5-fluoro-2-pyridyl)-1H-pyrrolo[2,3-b]pyridin-4-yl]-N-methyl-piperidin-3-amine], the inhibition constant Ki at ROCK2 came out at 2.19 µM; on ROCK1, 8.93 µM; at MRCKβ, 0.00741 µM.

With `CN[C@H]1CCCN(c2ccnc3[nH]cc(-c4cccnc4)c23)C1` [Example E53, (3S)-N-methyl-1-[3-(3-pyridyl)-1H-pyrrolo[2,3-b]pyridin-4-yl]piperidin-3-amine], the figures for the Ki at ROCK2, at ROCK1 and at MRCKβ were 0.335 µM, 50.5 µM and 0.00127 µM, respectively.

As for `OCCN[C@H]1CCCN(c2ccnc3[nH]cc(-c4cncnc4)c23)C1` [Example E56, 2-[[(3S)-1-(3-pyrimidin-5-yl-1H-pyrrolo[2,3-b]pyridin-4-yl)-3-piperidyl]amino]ethanol], the inhibition constant Ki on ROCK2 came out at 0.573 µM; on ROCK1, 1.39 µM; on MRCKβ, 0.00223 µM.

For the compound `N[C@H]1CCN(c2ccnc3[nH]cc(-c4cncnc4)c23)C1` [Example E58, (3S)-1-(3-pyrimidin-5-yl-1H-pyrrolo[2,3-b]pyridin-4-yl)pyrrolidin-3-amine], the inhibition constant (Ki) at ROCK2 is 0.0858 µM; on ROCK1, 0.158 µM; at MRCKβ, 0.00348 µM.

Consider `NC1CCCN(c2ccnc3[nH]cc(-c4cncnc4)c23)C1` (stereo not drawn) [Example E59, 1-(3-pyrimidin-5-yl-1H-pyrrolo[2,3-b]pyridin-4-yl)piperidin-3-amine], for which the results for the inhibition constant (Ki) on ROCK2, on ROCK1 and on MRCKβ were 0.154 µM, 0.318 µM and 0.0069 µM, respectively.

For `Cc1[nH]ncc1-c1c[nH]c2nccc(N3CCC[C@H](N)C3)c12` [Example E61, (3S)-1-[3-(5-methyl-1H-pyrazol-4-yl)-1H-pyrrolo[2,3-b]pyridin-4-yl]piperidin-3-amine], the values for the inhibition constant (Ki) on ROCK2, at ROCK1 and on MRCKβ were 0.0683 µM, 0.0932 µM and 0.0115 µM, respectively.

For the compound `CNC1CCCN(c2ccnc3[nH]cc(-c4cncnc4)c23)C1` (stereo not drawn) [Example E62, N-methyl-1-(3-pyrimidin-5-yl-1H-pyrrolo[2,3-b]pyridin-4-yl)piperidin-3-amine], the Ki on ROCK2 was determined as 0.314 µM; at ROCK1 it was 0.36 µM; on MRCKβ, 0.0041 µM.

In the case of `CNC1CCN(c2ccnc3[nH]cc(-c4cncnc4)c23)CC1` [Example E63, N-methyl-1-(3-pyrimidin-5-yl-1H-pyrrolo[2,3-b]pyridin-4-yl)piperidin-4-amine], the Ki on ROCK2 is 0.0912 µM; on ROCK1, 0.138 µM; on MRCKβ, 0.00198 µM.

For `N[C@@H]1CCCN(c2ccnc3[nH]cc(-c4cncnc4)c23)C1` [Example E64, (3R)-1-(3-pyrimidin-5-yl-1H-pyrrolo[2,3-b]pyridin-4-yl)piperidin-3-amine], the inhibition constant Ki was 0.39 µM on ROCK2, 0.166 µM on ROCK1 and 0.0148 µM at MRCKβ.

Turning to `NC1CCN(c2ccnc3[nH]cc(-c4cncnc4)c23)CC1` [Example E65, 1-(3-pyrimidin-5-yl-1H-pyrrolo[2,3-b]pyridin-4-yl)piperidin-4-amine], the Ki at ROCK2 stood at 0.138 µM; at ROCK1 it was 0.128 µM; on MRCKβ it was 0.00165 µM.

Turning to `CN[C@H]1CCCN(c2ccnc3[nH]cc(-c4cnsc4)c23)C1` [Example E67, (3S)-1-(3-isothiazol-4-yl-1H-pyrrolo[2,3-b]pyridin-4-yl)-N-methyl-piperidin-3-amine], the Ki is 0.0364 µM on ROCK2, 0.109 µM on ROCK1 and 0.000273 µM at MRCKβ.

Take `CCN[C@H]1CCCN(c2ccnc3[nH]cc(-c4ccnnc4)c23)C1` [Example E71, (3S)—N-ethyl-1-(3-pyridazin-4-yl-1H-pyrrolo[2,3-b]pyridin-4-yl)piperidin-3-amine]: the Ki at ROCK2 amounted to 0.0739 µM; on ROCK1 it was 0.152 µM; on MRCKβ, 0.000802 µM.

Take `COCCN[C@H]1CCCN(c2ccnc3[nH]cc(-c4cncnc4)c23)C1` [Example E73, (3S)-N-(2-methoxyethyl)-1-(3-pyrimidin-5-yl-1H-pyrrolo[2,3-b]pyridin-4-yl)piperidin-3-amine]: the inhibition constant Ki at ROCK2 turned out to be 0.964 µM; on ROCK1, 2.06 µM; on MRCKβ, 0.00571 µM.

Take `CN[C@H]1CCCN(c2ccnc3[nH]cc(C#N)c23)C1` [Example E74, 4-[(3S)-3-(methylamino)-1-piperidyl]-1H-pyrrolo[2,3-b]pyridine-3-carbonitrile]: the inhibition constant Ki on ROCK2 was 0.222 µM; at ROCK1, 0.637 µM; at MRCKβ it was 0.00616 µM.

For the compound `CN[C@H]1CCCN(c2ccnc3[nH]cc(-c4cnc(C)nc4)c23)C1` [Example E75, (3S)-N-methyl-1-[3-(2-methylpyrimidin-5-yl)-1H-pyrrolo[2,3-b]pyridin-4-yl]piperidin-3-amine], the inhibitory constant (Ki) is 6.42 µM on ROCK2, 21.7 µM at ROCK1 and 0.0254 µM at MRCKβ.

In the case of `CC(C)N[C@H]1CCCN(c2ccnc3[nH]cc(-c4cncnc4)c23)C1` [Example E76, (3S)-N-isopropyl-1-(3-pyrimidin-5-yl-1H-pyrrolo[2,3-b]pyridin-4-yl)piperidin-3-amine], the inhibition constant Ki on ROCK2 turned out to be 16.8 µM; on ROCK1 it was 32.4 µM; on MRCKβ, 0.871 µM.

For the compound `CN[C@@H]1CCCN(c2ccnc3[nH]cc(-c4cncnc4)c23)C1` [Example E77, (3R)-N-methyl-1-(3-pyrimidin-5-yl-1H-pyrrolo[2,3-b]pyridin-4-yl)piperidin-3-amine], the Ki worked out at 0.248 µM at ROCK2, 0.379 µM at ROCK1 and 0.0105 µM on MRCKβ.

Regarding `c1ncc(-c2c[nH]c3nccc(NC4CCCCNC4)c23)cn1` (stereo not drawn) [Example E85, N-(azepan-3-yl)-3-pyrimidin-5-yl-1H-pyrrolo[2,3-b]pyridin-4-amine], the Ki at ROCK2 turned out to be 0.46 µM; at ROCK1, 0.421 µM; at MRCKβ, 0.0141 µM.

For the compound `c1ncc(-c2c[nH]c3nccc(N[C@@H]4CCCNC4)c23)cn1` [Example E88, N-[(3R)-3-piperidyl]-3-pyrimidin-5-yl-1H-pyrrolo[2,3-b]pyridin-4-amine], the inhibitory constant (Ki) on ROCK2 was 0.0704 µM; on ROCK1, 0.0852 µM; on MRCKβ it was 0.00721 µM.

The values are drawn from patent US11447505B1, “Pyrrolo[2,3-b]pyridine compounds and their use in the treatment of cancer” (priority 2017, dated 2022).
